For data set [1] the following is noted: cited from earlier work.
For data set [2] the following is noted: cited from earlier work. The source holds these as a separate data set.
The target of a further data set is T1, p300 (Homo sapiens, UniProt Q09472).
T1 construct: the catalytic domain of human CBP, PCAF, p300 and GCN5 (Enzo Life Sci., USA) can be used; purchased Enzo Life Sciences
T1 sequence (Q09472 1287-1663 limits assumed): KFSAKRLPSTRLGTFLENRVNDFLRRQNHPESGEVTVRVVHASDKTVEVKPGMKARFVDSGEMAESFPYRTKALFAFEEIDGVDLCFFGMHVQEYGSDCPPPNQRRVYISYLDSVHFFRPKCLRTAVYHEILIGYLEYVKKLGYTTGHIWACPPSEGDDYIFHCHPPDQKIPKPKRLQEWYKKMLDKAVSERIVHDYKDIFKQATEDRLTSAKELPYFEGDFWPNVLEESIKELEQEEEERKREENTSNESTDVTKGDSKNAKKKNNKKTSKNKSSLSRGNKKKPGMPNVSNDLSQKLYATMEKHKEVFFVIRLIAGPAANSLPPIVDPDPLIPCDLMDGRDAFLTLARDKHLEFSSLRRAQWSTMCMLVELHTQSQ
In words: acetyltransferase activity assay (Enzo Life Sciences), P300. It is filed as biochemical. Conditions: for EC50: Table 1, activation of P300 according to b440. How it is done: (§1) Commercial human HATs (CBP, p300, GCN5, PCAF (Enzo Life Sciences), and Tip60 (SignalChem)) were assayed in an acetyltransferase activity assay (Enzo Life Sciences, Cat. No. ADI-907-026). Each well contained, in addition to a HAT, histone 3 as the acetyl acceptor, acetyl-CoA as the acetyl donor in the reaction mixture and compounds (1% DMSO) at the appropriate concentrations. The reaction was carried out at room temperature. Enzyme activity was measured by monitoring the breakage of the substrate acetyl-CoA by HAT using a proprietary detection mixture. The fluorescent signal was measured using a Tecan microplate reader (excitation: 380 nm, emission: 520 nm). The assay methodology was adopted as it provided a 10-fold higher signal/background ratio and was more sensitive than other assays. […] Compound 10 had no effect with either P300 or CBP (FIG. 13).

For another data set, the target named is T2, CBP (Homo sapiens, UniProt Q92793).
T2 construct: the catalytic domain of human CBP, PCAF, p300 and GCN5 (Enzo Life Sci., USA) can be used; purchased Enzo Life Sciences
The experiment in a line: acetyltransferase activity assay (Enzo Life Sciences), CBP. It is filed as biochemical. How it is done:
as §1

In data set [3] the test system is Aβ-induced reduction of LTP. The experiment in a line: rescue of Aβ-induced reduction of LTP. The source says: Synaptic dysfunction is a major hallmark of AD (Histol Histopathol, 1995. 10(2): p. 509-19; herein incorporated by reference in its entirety). An aspect of the drug screening protocol can include a measurement of the effect of compounds onto synaptic function. The APP/PS1 mouse presents an impairment of LTP by the age of 3 months (Ann Neurol, 2004. 55(6): p. 801-14; herein incorporated by reference in its entirety), and therefore permits a relatively fast assessment of synaptic function without waiting a long time for mice aging. LTP can be examined because it is a type of synaptic plasticity thought to underlie learning and memory. D rescues the Aβ-induced reduction of LTP, and other compounds can also be screened to identify those that can re-establish normal LTP. The compounds can be applied for 30 min. Controls can be performed on slices from APP/PS1 mice treated with vehicle, and WT mice treated with compound or vehicle. If the compounds re-establish normal LTP in APP/PS1 slices, one can conclude that the compounds rescue impairment of synaptic plasticity in APP/PS1 mice. Cognitive impairment can also be investigated (see Example 5).

The subject of another data set is histone acetylation. Conditions: cited from earlier work.
For data set [4] the following is noted: cited from earlier work. This is another data set of the same source.
For data set [5] the following is noted: in vivo; cited from earlier work.
For a further data set, the target named is T3, Tip60 (Homo sapiens, UniProt Q92993).
T3 construct: purchased SignalChem
In words: acetyltransferase activity assay (Enzo Life Sciences), Tip60. The data set is classed as biochemical. The following applies: histone 3 acetyl acceptor, acetyl-CoA, room temperature. As for the experimental part:
as §1

Data set [6] concerns PC12 cells, sympathetic neurons and hippocampal neurons. Conditions: cited from earlier work.
Data set [7] has as its system APP/PS1 mouse. Conditions: APP/PS1 double transgenic mouse; cited from earlier work.
The subject of data set [8] is APP/PS1 mouse. Conditions: APP/PS1 double transgenic mouse; cited from earlier work. The source holds these as a separate data set.
The conditions of data set [9]: in vivo; cited from earlier work. The source holds these as a separate data set.

T2 sequence (Q92793 1323-1700 limits assumed): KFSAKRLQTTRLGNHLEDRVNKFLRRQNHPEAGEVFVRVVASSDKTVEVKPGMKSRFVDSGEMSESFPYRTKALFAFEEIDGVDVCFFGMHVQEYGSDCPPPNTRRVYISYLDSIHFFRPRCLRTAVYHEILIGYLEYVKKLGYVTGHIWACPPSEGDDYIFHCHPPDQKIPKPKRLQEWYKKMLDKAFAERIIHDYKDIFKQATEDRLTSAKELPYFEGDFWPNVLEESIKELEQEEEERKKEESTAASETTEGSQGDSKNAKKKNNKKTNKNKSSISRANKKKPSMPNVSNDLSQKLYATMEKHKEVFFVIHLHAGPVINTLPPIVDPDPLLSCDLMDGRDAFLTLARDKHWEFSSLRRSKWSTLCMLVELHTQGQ
T3 sequence (Q92993 whole entry): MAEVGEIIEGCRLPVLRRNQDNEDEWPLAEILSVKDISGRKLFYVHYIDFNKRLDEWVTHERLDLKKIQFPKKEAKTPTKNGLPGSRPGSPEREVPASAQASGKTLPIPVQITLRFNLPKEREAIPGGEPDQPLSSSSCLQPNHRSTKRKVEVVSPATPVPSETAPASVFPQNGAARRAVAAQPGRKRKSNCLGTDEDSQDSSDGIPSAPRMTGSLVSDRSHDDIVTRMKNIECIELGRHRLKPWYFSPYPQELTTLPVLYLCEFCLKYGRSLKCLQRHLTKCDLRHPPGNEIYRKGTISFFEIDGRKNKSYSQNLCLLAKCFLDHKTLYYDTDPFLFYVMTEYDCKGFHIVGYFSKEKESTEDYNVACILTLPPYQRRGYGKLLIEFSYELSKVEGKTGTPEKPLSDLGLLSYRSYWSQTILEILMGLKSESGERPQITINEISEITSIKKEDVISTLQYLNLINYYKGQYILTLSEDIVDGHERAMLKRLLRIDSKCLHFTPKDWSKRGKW

Take `CCOc1ccccc1C(=O)Nc1ccc(Cl)c(C(F)(F)F)c1` [CTB]: the membrane permeability entry in data set [1] is on record as “membrane-impermeable”. In data set [2], the solubility entry is “insoluble”. With `CCCCCCCCCCCCCCCc1cccc(OCC)c1C(=O)Nc1ccc(Cl)c(C(F)(F)F)c1` [CTPB], in data set [1], the membrane permeability entry is given as “membrane-impermeable”. For the same compound, the solubility result in data set [2] is “insoluble”. Broadly, the EC50 is the concentration giving half of the maximal effect. Lower therefore signals an effect from little substance. In turn, `CCOc1cccc(OCCN2CCCCC2)c1C(=O)Nc1ccc(Cl)c(C(F)(F)F)c1` [Compound 8, N-[4-chloro-3-(trifluoromethyl)phenyl]-2-ethoxy-6-[2-(piperidin-1-yl)ethoxy] benzamide] displayed an EC50 on p300 of 2.75 nM.

At p300, `CCOc1cccc(OCCN2CCOCC2)c1C(=O)Nc1ccc(Cl)c(C(F)(F)F)c1` [Compound 9, N-[4-chloro-3-(trifluoromethyl)phenyl]-2-ethoxy-6-(2-morpholinoethoxy) benzamide] returned a concentration for a half-maximal effect (EC50) of 2.07 nM. As for `CCOc1cccc(OCCN2CCNCC2)c1C(=O)Nc1ccc(Cl)c(C(F)(F)F)c1` [Compound 10, N-[4-chloro-3-(trifluoromethyl)phenyl]-2-ethoxy-6-[2-(piperazin-1-yl)ethoxy]benzamide], at p300, the concentration giving a half-maximal response (EC50) turned out to be 2.1 nM and the “effect on P300, initial screening (FIG. 13)” value is “no effect”. Further, the “effect on CBP, initial screening (FIG. 13)” value (“effect on CBP” for short) at CBP is recorded as “no effect”. With `CCOc1cccc(OCCN2CCN(C)CC2)c1C(=O)Nc1ccc(Cl)c(C(F)(F)F)c1` [Compound 11, N-[4-chloro-3-(trifluoromethyl)phenyl]-2-ethoxy-6-[2-(4-methylpiperazin-1-yl)ethoxy]benzamide], at p300, the concentration for a half-maximal effect (EC50) came out at 2.28 nM and the “effect on P300, initial screening (FIG. 13)” value was “inhibited”. The “effect on CBP” value at CBP is given as “no effect”. Regarding `CCOc1cccc(OCCN(CC)CC)c1C(=O)Nc1ccc(Cl)c(C(F)(F)F)c1` [Compound 12, N-(4-chloro-3-(trifluoromethyl)phenyl)-2-(2-(diethylamino)ethoxy)-6-ethoxybenzamide], the response at p300 was half-maximal at 1.47 nM (EC50). On the same count and under the same terms, the figure for `CCOc1cccc(OCCCN(C)C)c1C(=O)Nc1ccc(Cl)c(C(F)(F)F)c1` [Compound 13, N-[4-chloro-3-(trifluoromethyl)phenyl]-2-[3-(dimethylamino)propoxy]-6-ethoxybenzamide] is 1.32 nM.

The compound `CCOc1cccc(OCCN(C)C)c1C(=O)NCc1ccc(Cl)c(C(F)(F)F)c1` [Compound 16, N-[4-chloro-3-(trifluoromethyl)benzyl]-2-(2-(dimethylamino)ethoxy)-6-ethoxybenzamide] yielded an EC50 on p300 of 1.84 nM. In addition, the “effect on CBP” value at CBP was “activated only CBP”. Take `CCOc1cccc(OCCN(C)C)c1/C=N/c1ccc(Cl)c(C(F)(F)F)c1` [Compound 17, 4-chloro-N-[2-(2-(dimethylamino)ethoxy)-6-ethoxybenzylidene]-3-(trifluoromethyl)aniline]: the “effect on CBP” value at CBP was “activated only CBP”.

On p300, `CCOc1ccc(OCCN(C)C)c(C(=O)Nc2ccc(Cl)c(C(F)(F)F)c2)c1` [Compound 18, N-(4-chloro-3-(trifluoromethyl)phenyl)-2-(2-(dimethylamino)ethoxy)-5-ethoxybenzamide] showed a 50% effective concentration (EC50) of 2.3 nM. Also, the “effect on CBP” value on CBP is given as “activated only CBP”. As to `CCOc1ccc(C(=O)Nc2ccc(Cl)c(C(F)(F)F)c2)c(OCCN(C)C)c1` [Compound 19, N-(4-chloro-3-(trifluoromethyl)phenyl)-2-(2-(dimethylamino)ethoxy)-4-ethoxybenzamide], a half-maximal response at p300 (EC50) required 1.85 nM. As to `CCOc1cccc(O)c1C(=O)Nc1ccc(Cl)c(C(F)(F)F)c1` [Compound 25, N-[4-chloro-3-(trifluoromethyl)phenyl]-2-ethoxy-6-hydroxybenzamide], at CBP, the “effect on CBP” value is recorded as “activated only CBP”. On the same count and under the same terms, to `CCOc1cccc(O)c1CNc1ccc(Cl)c(C(F)(F)F)c1` [Compound 26, 2-[((4-chloro-3-(trifluoromethyl)phenyl)amino)methyl]-3-ethoxyphenol] belongs “activated only CBP”. As to `CCOc1cccc(OCCN(C)C)c1C(=O)Nc1ccc(Cl)c(C(F)(F)F)c1` [Compound D, N-[4-chloro-3-(trifluoromethyl)phenyl]-2-[2-(dimethyl-amino)ethoxy]-6-ethoxybenzamide], the EC50 on p300 was 3.81 nM; on CBP (histone 3 acetyl acceptor, acetyl-CoA, room temperature), 4.5 nM; on Tip60, > 200000 nM. Further, the “Aβ-induced reduction of LTP” value in data set [3] is “rescues”. Further, the histone acetylation result in the data set on histone acetylation is reported as “increases histone acetylation”. Besides, the membrane permeability entry in [1] was “membrane permeable”. For the same compound, in data set [4], the BBB permeability entry was “BBB permeant”. For the same compound, in data set [5], the “safety in acute toxicity tests” value is on record as “safe”. For the same compound, in [2], the solubility result was “soluble”.

With `CC(C)(SN=O)[C@H](N)C(=O)O` [S-nitroso penicillamine], the “protection against Aβ-induced neurotoxicity” value in data set [6] is reported as “exerts a neuroprotective effect”. Consider `CC(/C=C/C(=O)NO)=C\[C@@H](C)C(=O)c1ccc(N(C)C)cc1` [TSA], for which, in the data set on APP/PS1 mouse [7], the LTP entry is on record as “ameliorates”. The “contextual fear conditioning (FC) / contextual learning” value in the data set with APP/PS1 mouse [8] is given as “ameliorates”. As to `Cc1cc(-c2ccccc2)nnc1NCCN1CCOCC1` [minaprine], the brain/blood ratio in [9] is on record as > 2. Turning to `COc1ccc(C2CNC(=O)C2)cc1OC1CCCC1` (stereo not shown) [rolipram], the LTP entry in the data set on APP/PS1 mouse [7] is recorded as “ameliorates deficits”. Besides, in the data set on APP/PS1 mouse [8], the “contextual fear conditioning (FC) / contextual learning” value is recorded as “ameliorates deficits”.

The values above are taken from patent US9969677B2, “Histone acetyltransferase modulators and uses thereof” (THE TRUSTEES OF COLUMBIA UNIVERSITY IN THE CITY OF NEW YORK, priority 2010, dated 2018).
